Consider four molecules from patent US8206756B2, “Herbal composition for inflammatory disorders” (Piramal Life Sciences Limited, priority 2005, dated 2012).

In data set [1] the test system is THP-1 cell adhesion to HUVECs. In words: Adhesion of THP-1 mononuclear cells to HUVEC monolayers. Type of data set: cell-based, human. Conditions: for Fluorescence Intensity: TNF-α 1 ng/ml; for Fold of control: unstimulated DMSO control = 1, stimulated = 18. The protocol: Adhesion studies were performed with the promonocytic cell line THP-1, which has been established as a useful model for monocytes in adhesion studies in Circ. Res., 97, 236-243, 2005, with modifications. THP-1 cells were washed twice with labeling medium (M200 plus LSGS). THP-1 cells (6×10^5 cells per ml) were labeled with 10 μg/ml bis-carboxyethyl-carboxyfluorescein acetoxymethylester (a fluorescent probe, BCECF-AM; Sigma) for 30 min at RT. After quenching with 0.1% BSA, the pellet was resuspended in labeling medium. To evaluate monocyte adhesion, HUVEC monolayers treated with TNF-α (1 ng/ml) in the presence or absence of various concentrations of test sample. The media was removed, washed and labeled-THP-1-cells were added to the wells (6×10^4 cells per well) and incubated for 10 minutes at RT in the dark. After co incubation, the wells were washed, filled with lysis buffer (0.1% Triton-X in 1.5 M Tris buffer) and incubated for 30 min. The fluorescence was measured using a fluorescent reader (PolarStar Optima, BMG Labtech) at an excitation peak of 485 nm and an emission peak of 520 nm. Values are means±SEM, representing fluorescent adhesion data. BAY 11-7082 [(E)-3-(4-methylphenylsulfonyl)-2-propenenitrile] was used as a standard and DMSO as vehicle control.

Data set [2] deals with atherosclerosis / hyperlipidemia. In words: Atherosclerosis model of high fat-fed hyperlipidemic hamsters. Type of data set: in vivo, Golden Syrian Hamsters. Conditions: Fenofibrate 100 mpk, extract 200 mpk. The method, then: The treatment effects of the extract of example 1 on prevention of aortic lesion were determined by using atherosclerosis model of high fat-fed hyperlipidemic hamster.
Details of animals used: Male Golden Syrian Hamsters, which were 7-8 weeks old and weighed approximately 100 g to 120 g, were used for the experiment. Hamsters were randomly selected for treatment group placement. Animals were earmarked using a paint marker. Animals were separated and housed in groups of three in appropriately sized solid-bottom cages. Room lighting conditions were adjusted to 12 hour light and 12 hour dark cycle. During the acclimation period the diet was Purina 5001 (Research Diets, Inc. New Brunswick, N.J., USA). A high-fat diet consisting of Purina 5001 plus 10% coconut oil, 10% corn oil, 0.5% cholesterol, and 5% fructose was administered beginning on day 1 and continued throughout the duration of study. Hamsters were provided purified tap water throughout the study.
For pretreatment lipid values, animals were bled by retro-orbital puncture following an 18-hour fast and ˜1 ml of blood was collected in a 3 ml Vacutainer® tube containing K3 EDTA. Each blood sample was centrifuged (4000 rpm, 20 min, 4° C. using an Eppendorf C5804R) and the plasma separated and was analyzed for determination of triglyceride (TG), total cholesterol, high density cholesterol (HDL) and low density cholesterol (LDL).
Preparation of dosing solution: The extract of example 1 was dissolved in vehicle [CMC (0.5%)/Tween 80 (2%)] for 200 mpk (5 ml/kg BW) dosing. The resulting solution was a fine suspension after 12-15 minutes gentle sonication. Aliquots were prepared (˜2.3 ml/vial) and stored in a freezer and were used daily.
All groups of animals were dosed orally either with vehicle or with extract of example 1 (200 mpk) for 58 days. […]
On day 58, following the 16-18 hour fasting period, animals were bled by retro-orbital puncture and ˜1 ml of blood was collected in a 3 ml Vacutainer® tube containing K3 EDTA. Each blood sample was centrifuged (4000 rpm, 20 min, 4° C. using an Eppendorf C5804R) and the plasma sample was analyzed for TG, total cholesterol, HDL and LDL.
Necropsy: On day 59, the animals were fasted for 4 h and euthanized under carbon dioxide and plasma samples were collected via cardiac puncture for lipid profiling and other analyses. […] The heart, aortic arch, thoracic and abdominal aorta up to femoral bifurcation were removed and placed in 10% formalin for en face lesion quantification.
En face analysis: Connective fascia and adventia surrounding the thoracic aorta were removed as much as possible. […] Quantitation was performed using a Nikon SMZ-U microscope with an Optronics Camera head recording the photographs. […] Quantitation was done based on percentage lesion per area.

Data set [3] relates to TNF-α. The experiment in a line: LPS-induced TNF-α production in hPBMCs (ELISA). Conditions: Homo sapiens, LPS 1 μg/ml, 5 h, hPBMC. Type of data set: cell-based. The method, then:
(§1) Primary screening—Human peripheral blood mononuclear cells (hPBMCs). TNF-α production by lipopolysaccharides (LPS) in hPBMCs was measured according to the method described by Jansky, L. et al (Physiol. Res. 52: 593-598, (2003)). Blood was collected from healthy donors into Potassium EDTA vacutainer tubes (BD vacutainer). The PBMCs were isolated using gradient centrifugation in Histopaque-1077 solution (Sigma). Isolated PBMCs were suspended in RPMI 1640 culture medium (Gibco BRL, Pasley, UK) containing 10% fetal bovine serum (FBS) (Hyclone, Utah, USA), 100 U/ml penicillin (Sigma Chemical Co. St Louis, Mo.) and 100 μg/ml streptomycin (Sigma Chemical Co. St Louis, Mo.). The cell concentration was adjusted to 1×10^6 cells/ml. The viability as determined by trypan blue dye exclusion was uniformly ≧98%. The cell suspension (100 μl) was added to the wells of a 96-well culture plate. Following cell plating, 79 μl of the culture medium and 1 μl of eight different concentrations of the test samples (final concentration 0.03, 0.1, 0.3, 1, 3, 10, 30, 100 μg/ml) dissolved in DMSO (dimethylsulfoxide, Sigma, Mo., USA) were added to the cells. The final concentration of DMSO was adjusted to 0.5%. The vehicle (0.5% DMSO) was used as control. Rolipram (100, 300 μM) was used as a standard. The plates were incubated for 30 min at 37° C. in an atmosphere of 5% CO2. Finally, 20 μl (10 μg/ml) per well of LPS, (Escherchia coli 0127:B8, Sigma Chemical Co., St. Louis, Mo.) was added, for a final concentration of 1 μg/ml. […] The % inhibition was recorded. Percent cytotoxicity of the test samples compared to control was evaluated.
The effect of the plant extract on the proinflammatory cytokines: TNF-α, interleukin-1β (IL-1β), interleukin-6 (IL-6) and interleukin-8 (IL-8) was measured using the supernatants generated in the primary screening assay. […]
The effect of the Compound 1, on the proinflammatory cytokines: TNF-α interleukin-1β (IL-1β), interleukin-6 (IL-6) and interleukin-8 (IL-8) was measured using the supernatants generated in the primary screening assay. […]

Data set [4] deals with hPBMCs. The experiment in a line: Cellular viability test (MTS) in hPBMCs. Type of data set: cell-based, human. As to conditions: hPBMC. The method, then:
as §1, with “standard.” for “standard. The plates were incubated for 30 min at 37° C. in an atmosphere of 5% CO2. Finally, 20 μl (10 μg/ml) per well of LPS, (Escherchia coli 0127:B8, Sigma Chemical Co., St. Louis, Mo.) was added, for a final concentration of 1 μg/ml.”

The subject of data set [5] is DSS-induced colitis. The experiment in a line: DSS-induced murine model of acute colitis. Format: in vivo, C57BL/6J mice. As to conditions: 15 mg/kg injected from day 5 onwards till death.

As to `Cc1ccc(S(=O)(=O)/C=C/C#N)cc1` [BAY 11-7082, (E)-3-(4-methylphenylsulfonyl)-2-propenenitrile, reference compound], the “Fluorescence Intensity” value is recorded as 18442 in data set [1] (0.5 μM) and 14271 in data set [1] (1 μM). The Fold of control in data set [1] (0.5 μM) was 10; in data set [1] (1 μM), 8.
`CC(C)OC(=O)C(C)(C)Oc1ccc(C(=O)c2ccc(Cl)cc2)cc1` [Fenofibrate]: the “Plasma triglycerides level, Mean” value in data set [2] (day 58, oral, vehicle mean 2321.3) was determined as 449.2. For the same molecule, the “Plasma triglycerides level, % Change” value in data set [2] (day 58, versus vehicle) is −81%. The “Atherosclerosis progression (percentage lesion per area, en face aorta), Mean” value in data set [2] (day 59, vehicle mean 0.5025) is 0.0834. Also, the “Atherosclerosis progression, % Change” value in data set [2] (versus vehicle) is −84%.
In the case of `COc1ccc(C2CNC(=O)C2)cc1OC1CCCC1` (stereo not shown) [Rolipram], in data set [3] (100 μM), the inhibition (in general, the share of the control response that was lost under treatment) at 100 µM was found to be 84%. Besides, the inhibition at 300 µM in data set [3] (300 μM) amounted to 90%. Also, the “% Toxicity at 5 h” value in data set [4] (100 μM) was determined as 2%; in data set [4] (300 μM) it was 21%.
With “infliximab: Monoclonal antibody drug (Centocor), injected 15 mg/kg in the DSS colitis model”, the “Survival against DSS-induced colitic death” value in data set [5] is given as “all animals in this group were dead”.
